Source: ChEMBL document CHEMBL1157802, “5-Functionalized indazoles as glucocorticoid receptor agonists” (Bioorg Med Chem Lett, 2010)
Activity calls are given as the source filed them.

Key:
[1] = target: Sigma non-opioid intracellular receptor 1 (Homo sapiens) (UniProt Q99720); test: Inhibition of sigma 1 receptor at 1 uM
[2] = target: D(1A) dopamine receptor (Homo sapiens) (UniProt P21728); test: Inhibition of dopamine D1 receptor at 1 uM
[3] = target: Prostaglandin E2 receptor EP4 subtype (Homo sapiens) (UniProt P35408); test: Inhibition of prostanoid EP4 receptor at 1 uM
Sequence of Prostaglandin E2 receptor EP4 subtype (Homo sapiens) (P35408 whole entry): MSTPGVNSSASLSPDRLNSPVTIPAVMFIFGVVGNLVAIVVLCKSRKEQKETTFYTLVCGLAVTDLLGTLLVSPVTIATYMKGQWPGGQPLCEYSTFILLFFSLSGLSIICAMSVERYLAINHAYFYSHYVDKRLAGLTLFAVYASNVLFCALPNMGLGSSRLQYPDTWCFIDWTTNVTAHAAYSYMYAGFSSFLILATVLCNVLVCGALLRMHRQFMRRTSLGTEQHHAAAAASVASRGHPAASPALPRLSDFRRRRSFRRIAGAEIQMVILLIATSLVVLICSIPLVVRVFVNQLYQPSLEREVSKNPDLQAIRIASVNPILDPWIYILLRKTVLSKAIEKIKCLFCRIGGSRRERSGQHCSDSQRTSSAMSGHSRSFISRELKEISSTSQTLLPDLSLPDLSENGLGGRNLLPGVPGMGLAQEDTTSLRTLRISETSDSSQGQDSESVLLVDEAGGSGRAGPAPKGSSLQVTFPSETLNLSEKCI

[4] = target: T1, Alpha-1B adrenergic receptor (Homo sapiens) (UniProt P35368); test: Inhibition of adrenergic Alpha-1B receptor at 1 uM
T1 sequence (whole entry): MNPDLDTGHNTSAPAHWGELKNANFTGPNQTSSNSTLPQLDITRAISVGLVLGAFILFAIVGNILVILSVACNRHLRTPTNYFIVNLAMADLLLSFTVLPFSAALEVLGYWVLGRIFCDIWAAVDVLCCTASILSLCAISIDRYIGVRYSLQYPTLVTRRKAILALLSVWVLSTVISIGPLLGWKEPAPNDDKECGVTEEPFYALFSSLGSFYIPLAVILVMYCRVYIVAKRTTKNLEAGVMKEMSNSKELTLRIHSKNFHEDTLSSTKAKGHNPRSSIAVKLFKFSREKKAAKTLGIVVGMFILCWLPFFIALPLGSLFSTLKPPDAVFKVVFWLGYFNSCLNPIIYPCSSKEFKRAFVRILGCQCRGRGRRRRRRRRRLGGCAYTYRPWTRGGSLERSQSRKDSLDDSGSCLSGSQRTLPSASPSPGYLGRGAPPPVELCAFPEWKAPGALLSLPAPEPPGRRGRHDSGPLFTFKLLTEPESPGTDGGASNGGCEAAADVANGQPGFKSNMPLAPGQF

[5] = target: T2, Muscarinic acetylcholine receptor M2 (Homo sapiens) (UniProt P08172); test: Inhibition of muscarinic M2 receptor at 1 uM
T2 sequence (whole entry): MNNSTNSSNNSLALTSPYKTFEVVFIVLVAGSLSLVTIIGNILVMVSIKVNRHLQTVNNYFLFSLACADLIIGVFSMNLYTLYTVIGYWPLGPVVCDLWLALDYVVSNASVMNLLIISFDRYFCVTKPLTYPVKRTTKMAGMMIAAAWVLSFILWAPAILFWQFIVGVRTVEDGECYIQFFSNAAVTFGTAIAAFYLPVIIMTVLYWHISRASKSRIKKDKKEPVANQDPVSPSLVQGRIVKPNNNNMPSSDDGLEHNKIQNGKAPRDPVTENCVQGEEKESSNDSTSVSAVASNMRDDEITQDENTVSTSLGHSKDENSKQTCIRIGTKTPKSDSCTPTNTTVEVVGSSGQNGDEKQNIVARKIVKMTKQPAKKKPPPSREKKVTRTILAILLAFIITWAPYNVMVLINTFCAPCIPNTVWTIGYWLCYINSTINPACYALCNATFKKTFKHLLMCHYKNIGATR

[6] = target: Mu-type opioid receptor (Homo sapiens) (UniProt P35372); test: Inhibition of mu opioid receptor at 1 uM
Sequence of Mu-type opioid receptor (Homo sapiens) (P35372 whole entry): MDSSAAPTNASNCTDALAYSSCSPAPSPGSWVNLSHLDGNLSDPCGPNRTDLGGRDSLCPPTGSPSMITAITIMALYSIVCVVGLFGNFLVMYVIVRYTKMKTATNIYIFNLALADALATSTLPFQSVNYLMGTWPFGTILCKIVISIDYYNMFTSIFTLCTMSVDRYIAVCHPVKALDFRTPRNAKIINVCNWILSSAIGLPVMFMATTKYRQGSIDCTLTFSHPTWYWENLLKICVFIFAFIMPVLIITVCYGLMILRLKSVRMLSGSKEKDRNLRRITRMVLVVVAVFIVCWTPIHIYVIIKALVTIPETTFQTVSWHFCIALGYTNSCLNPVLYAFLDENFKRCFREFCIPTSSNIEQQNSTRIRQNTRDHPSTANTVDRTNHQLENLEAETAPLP

[7] = Inhibition of calcium channel L type dihydropyridine binding site at 1 uM
[8] = target: Sodium-dependent noradrenaline transporter (Homo sapiens) (UniProt P23975); test: Inhibition of norepinephrine transporter at 1 uM
Sequence of Sodium-dependent noradrenaline transporter (Homo sapiens) (P23975 whole entry): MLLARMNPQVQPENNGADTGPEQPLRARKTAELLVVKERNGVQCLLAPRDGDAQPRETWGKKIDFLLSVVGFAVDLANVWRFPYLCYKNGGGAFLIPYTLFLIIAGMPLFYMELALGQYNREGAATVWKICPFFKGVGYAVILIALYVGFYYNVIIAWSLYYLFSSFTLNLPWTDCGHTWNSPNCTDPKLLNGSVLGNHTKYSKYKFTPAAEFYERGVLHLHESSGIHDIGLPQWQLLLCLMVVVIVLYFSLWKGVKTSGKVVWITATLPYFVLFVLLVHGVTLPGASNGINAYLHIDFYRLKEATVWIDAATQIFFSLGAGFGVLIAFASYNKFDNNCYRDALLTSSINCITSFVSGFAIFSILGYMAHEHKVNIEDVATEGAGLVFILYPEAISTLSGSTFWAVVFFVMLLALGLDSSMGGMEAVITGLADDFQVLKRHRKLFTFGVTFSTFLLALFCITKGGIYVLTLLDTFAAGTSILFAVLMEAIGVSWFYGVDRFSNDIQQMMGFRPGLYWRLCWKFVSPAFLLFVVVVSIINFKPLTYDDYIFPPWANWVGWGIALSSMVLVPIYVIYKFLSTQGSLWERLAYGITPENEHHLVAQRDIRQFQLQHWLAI

[9] = Inhibition of GABAA receptor agonist site at 1 uM; assay type: functional
[10] = target: Beta-1 adrenergic receptor (Homo sapiens) (UniProt P08588); test: Inhibition of adrenergic beta-1 receptor at 1 uM
Sequence of Beta-1 adrenergic receptor (Homo sapiens) (P08588 whole entry, looked up): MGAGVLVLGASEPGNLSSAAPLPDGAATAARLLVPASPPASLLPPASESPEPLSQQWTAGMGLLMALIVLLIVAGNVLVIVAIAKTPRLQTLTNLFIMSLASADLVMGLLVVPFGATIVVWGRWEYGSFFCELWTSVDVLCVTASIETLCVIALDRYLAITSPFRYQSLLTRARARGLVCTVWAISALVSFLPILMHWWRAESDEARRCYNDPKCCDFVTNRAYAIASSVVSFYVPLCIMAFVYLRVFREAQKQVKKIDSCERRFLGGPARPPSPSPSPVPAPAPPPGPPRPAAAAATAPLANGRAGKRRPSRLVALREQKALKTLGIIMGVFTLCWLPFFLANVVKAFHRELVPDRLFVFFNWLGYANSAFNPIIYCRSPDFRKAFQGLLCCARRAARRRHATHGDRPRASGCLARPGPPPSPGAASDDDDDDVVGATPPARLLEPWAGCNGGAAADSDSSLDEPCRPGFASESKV

[11] = Inhibition of central benzodiazepine receptor at 1 uM
[12] = target: D(2) dopamine receptor (Homo sapiens) (UniProt P14416); test: Inhibition of dopamine D2S receptor at 1 uM
[13] = Inhibition of rolipram binding site at 1 uM
[14] = Inhibition of phencyclidine receptor at 1 uM
[15] = target: T3, Adenosine receptor A1 (Homo sapiens) (UniProt P30542); test: Inhibition of adenosine A1 receptor at 1 uM
T3 sequence (whole entry): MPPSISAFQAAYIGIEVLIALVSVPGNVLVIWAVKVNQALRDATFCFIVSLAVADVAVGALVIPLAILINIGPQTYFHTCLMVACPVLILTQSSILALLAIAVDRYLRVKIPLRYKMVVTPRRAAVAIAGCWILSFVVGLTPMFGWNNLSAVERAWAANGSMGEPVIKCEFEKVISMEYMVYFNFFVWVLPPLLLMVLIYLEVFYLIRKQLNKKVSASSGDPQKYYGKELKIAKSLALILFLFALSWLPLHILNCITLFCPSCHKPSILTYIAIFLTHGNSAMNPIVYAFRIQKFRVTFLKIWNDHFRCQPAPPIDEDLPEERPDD

[16] = Inhibition of NMDA receptor at 1 uM
[17] = Inhibition of central imidazoline I2 receptor at 1 uM
[18] = Inhibition of nicotinic bungarotoxin-sensitive acetylcholine receptor at 1 uM
[19] = Inhibition of sigma 2 receptor at 1 uM
[20] = Selectivity for human glucocorticoid receptor over ERbeta
[21] = target: Muscarinic acetylcholine receptor M3 (Homo sapiens) (UniProt P20309); test: Inhibition of muscarinic M3 receptor at 1 uM
Sequence of Muscarinic acetylcholine receptor M3 (Homo sapiens) (P20309 whole entry, looked up): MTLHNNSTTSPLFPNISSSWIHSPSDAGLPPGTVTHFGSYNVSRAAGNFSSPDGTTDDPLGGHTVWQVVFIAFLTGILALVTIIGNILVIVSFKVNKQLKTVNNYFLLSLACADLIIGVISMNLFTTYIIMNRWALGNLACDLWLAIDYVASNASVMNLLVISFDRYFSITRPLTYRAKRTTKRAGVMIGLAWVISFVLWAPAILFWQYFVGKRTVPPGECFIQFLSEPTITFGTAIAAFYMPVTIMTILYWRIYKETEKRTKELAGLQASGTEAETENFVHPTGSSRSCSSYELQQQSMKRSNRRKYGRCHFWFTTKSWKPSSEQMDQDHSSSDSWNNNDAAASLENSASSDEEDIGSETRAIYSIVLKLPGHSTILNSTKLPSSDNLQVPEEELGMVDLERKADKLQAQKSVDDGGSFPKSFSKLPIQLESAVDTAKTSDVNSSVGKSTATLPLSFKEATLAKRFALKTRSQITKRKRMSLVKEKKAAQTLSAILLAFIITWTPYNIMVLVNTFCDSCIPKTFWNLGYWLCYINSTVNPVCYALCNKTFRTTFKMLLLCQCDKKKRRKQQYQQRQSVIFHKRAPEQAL

[22] = target: Histamine H1 receptor (Homo sapiens) (UniProt P35367); test: Inhibition of histamine H1 receptor at 1 uM
Sequence of Histamine H1 receptor (Homo sapiens) (P35367 whole entry): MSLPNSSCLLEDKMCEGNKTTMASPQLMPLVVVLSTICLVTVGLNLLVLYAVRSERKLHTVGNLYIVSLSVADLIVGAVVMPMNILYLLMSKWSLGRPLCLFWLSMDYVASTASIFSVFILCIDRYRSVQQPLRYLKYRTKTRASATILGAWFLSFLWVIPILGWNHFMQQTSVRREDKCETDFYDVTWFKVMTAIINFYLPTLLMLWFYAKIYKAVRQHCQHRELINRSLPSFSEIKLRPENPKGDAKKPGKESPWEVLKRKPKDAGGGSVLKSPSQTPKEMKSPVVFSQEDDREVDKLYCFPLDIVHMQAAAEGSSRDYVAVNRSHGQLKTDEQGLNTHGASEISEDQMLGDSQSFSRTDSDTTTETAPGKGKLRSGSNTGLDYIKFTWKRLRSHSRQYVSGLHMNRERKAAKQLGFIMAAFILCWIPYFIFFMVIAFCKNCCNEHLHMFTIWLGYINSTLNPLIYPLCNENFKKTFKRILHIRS

[23] = target: Adenosine receptor A2a (Homo sapiens) (UniProt P29274); test: Inhibition of adenosine A2A receptor at 1 uM
Sequence of Adenosine receptor A2a (Homo sapiens) (P29274 whole entry): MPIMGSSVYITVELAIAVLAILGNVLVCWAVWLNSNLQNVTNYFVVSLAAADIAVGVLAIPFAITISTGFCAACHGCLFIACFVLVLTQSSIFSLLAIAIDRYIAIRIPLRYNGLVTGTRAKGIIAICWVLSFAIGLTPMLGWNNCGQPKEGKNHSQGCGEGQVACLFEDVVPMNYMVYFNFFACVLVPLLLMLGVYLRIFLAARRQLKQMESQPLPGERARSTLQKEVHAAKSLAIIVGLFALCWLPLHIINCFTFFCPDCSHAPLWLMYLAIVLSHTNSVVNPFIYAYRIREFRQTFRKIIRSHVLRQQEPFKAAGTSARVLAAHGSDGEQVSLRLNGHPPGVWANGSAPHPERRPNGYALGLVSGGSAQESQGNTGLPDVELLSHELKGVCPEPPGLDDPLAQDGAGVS

[24] = Inhibition of phorbol ester site of PKC at 1 uM
[25] = Selectivity for human glucocorticoid receptor over androgen receptor
[26] = target: T4, Alpha-2A adrenergic receptor (Homo sapiens) (UniProt P08913); test: Inhibition of adrenergic alpha2A receptor at 1 uM
T4 sequence (whole entry): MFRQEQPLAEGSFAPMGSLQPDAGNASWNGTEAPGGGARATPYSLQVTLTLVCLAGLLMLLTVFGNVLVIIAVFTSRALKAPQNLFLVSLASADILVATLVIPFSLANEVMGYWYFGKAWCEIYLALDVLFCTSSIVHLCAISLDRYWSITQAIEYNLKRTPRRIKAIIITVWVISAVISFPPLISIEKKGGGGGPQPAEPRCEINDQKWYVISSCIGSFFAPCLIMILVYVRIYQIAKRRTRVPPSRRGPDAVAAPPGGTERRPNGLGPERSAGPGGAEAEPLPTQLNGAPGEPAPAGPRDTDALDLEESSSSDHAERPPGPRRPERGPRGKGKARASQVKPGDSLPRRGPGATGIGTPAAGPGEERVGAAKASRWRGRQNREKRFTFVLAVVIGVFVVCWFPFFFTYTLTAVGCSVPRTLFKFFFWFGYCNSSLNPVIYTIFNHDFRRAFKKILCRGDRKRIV

Mus musculus [27] = test: Antiinflammatory activity in mouse assessed as reduction of LPS-stimulated TNFalpha expression at 30 mg/kg relative to control; assay type: functional, organism-based; set-up: dose 30 mg/kg
[28] = Inhibition of sodium channel site 2 at 1 uM
[29] = Selectivity for human glucocorticoid receptor over ERalpha
[30] = Inhibition of ATP-sensitive potassium channel at 1 uM
[31] = Selectivity for human glucocorticoid receptor over progesterone receptor
[32] = target: T5, Alpha-1A adrenergic receptor (Homo sapiens) (UniProt P35348); test: Inhibition of adrenergic alpha1A receptor at 1 uM
T5 sequence (whole entry): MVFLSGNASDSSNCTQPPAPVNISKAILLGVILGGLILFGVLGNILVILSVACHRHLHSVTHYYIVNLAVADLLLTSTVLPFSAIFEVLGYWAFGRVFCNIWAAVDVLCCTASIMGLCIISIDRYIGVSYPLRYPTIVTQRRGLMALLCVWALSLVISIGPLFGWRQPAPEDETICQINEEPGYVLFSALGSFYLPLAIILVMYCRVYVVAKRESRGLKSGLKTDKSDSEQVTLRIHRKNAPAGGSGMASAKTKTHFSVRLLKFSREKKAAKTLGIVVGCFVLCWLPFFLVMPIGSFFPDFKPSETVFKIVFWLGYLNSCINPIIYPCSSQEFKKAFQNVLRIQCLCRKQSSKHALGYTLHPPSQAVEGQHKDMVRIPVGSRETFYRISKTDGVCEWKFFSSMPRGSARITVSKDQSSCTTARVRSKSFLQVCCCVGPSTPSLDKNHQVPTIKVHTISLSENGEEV

[33] = Inhibition of nicotinic acetylcholine receptor at 1 uM
[34] = target: Beta-2 adrenergic receptor (Homo sapiens) (UniProt P07550); test: Inhibition of adrenergic beta2 receptor at 1 uM
Sequence of Beta-2 adrenergic receptor (Homo sapiens) (P07550 whole entry, looked up): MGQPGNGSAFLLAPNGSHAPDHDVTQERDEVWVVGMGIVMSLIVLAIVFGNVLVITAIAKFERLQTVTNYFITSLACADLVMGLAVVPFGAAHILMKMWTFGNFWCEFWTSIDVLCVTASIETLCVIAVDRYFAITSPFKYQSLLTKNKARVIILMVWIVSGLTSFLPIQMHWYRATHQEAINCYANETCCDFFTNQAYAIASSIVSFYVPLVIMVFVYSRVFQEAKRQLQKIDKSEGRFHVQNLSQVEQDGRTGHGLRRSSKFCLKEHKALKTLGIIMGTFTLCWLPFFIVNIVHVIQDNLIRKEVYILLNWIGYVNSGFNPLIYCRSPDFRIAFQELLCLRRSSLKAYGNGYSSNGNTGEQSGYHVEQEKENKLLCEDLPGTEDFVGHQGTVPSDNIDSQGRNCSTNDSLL

Glucocorticoid receptor [35] = target: T6, Glucocorticoid receptor (Homo sapiens, UniProt P04150); test: Agonist activity at glucocorticoid receptor in human MDA-kb2 cells transfected with MMTV-LUC assessed as induction of MMTV-LTR/promoter linked LUC gene by luciferase transactivation assay; assay type: functional, cell-based; conditions: read-out: EC50
T6 sequence (P04150 whole entry): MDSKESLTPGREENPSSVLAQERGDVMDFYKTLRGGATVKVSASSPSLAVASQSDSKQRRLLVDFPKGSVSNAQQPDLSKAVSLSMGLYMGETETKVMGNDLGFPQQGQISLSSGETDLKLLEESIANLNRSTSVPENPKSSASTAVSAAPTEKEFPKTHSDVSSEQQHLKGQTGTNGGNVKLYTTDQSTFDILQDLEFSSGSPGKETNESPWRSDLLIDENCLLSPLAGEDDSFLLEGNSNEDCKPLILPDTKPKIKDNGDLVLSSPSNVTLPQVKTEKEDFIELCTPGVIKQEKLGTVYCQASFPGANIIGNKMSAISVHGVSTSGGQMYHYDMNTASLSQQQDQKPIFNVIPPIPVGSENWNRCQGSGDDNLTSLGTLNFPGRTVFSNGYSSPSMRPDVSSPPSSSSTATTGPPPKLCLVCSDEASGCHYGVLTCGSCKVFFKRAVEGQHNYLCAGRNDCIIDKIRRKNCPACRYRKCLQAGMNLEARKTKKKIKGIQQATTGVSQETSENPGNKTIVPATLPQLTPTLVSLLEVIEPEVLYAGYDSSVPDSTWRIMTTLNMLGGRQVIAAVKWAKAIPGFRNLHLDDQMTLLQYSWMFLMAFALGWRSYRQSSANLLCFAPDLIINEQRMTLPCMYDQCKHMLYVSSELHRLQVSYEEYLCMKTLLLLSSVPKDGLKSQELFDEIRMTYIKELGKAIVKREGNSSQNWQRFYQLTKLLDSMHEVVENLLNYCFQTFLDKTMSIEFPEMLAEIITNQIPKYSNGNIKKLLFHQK

hERG (KCNH2) = hERG (KCNH2) (Homo sapiens, UniProt Q12809); test: Inhibition of human ERG at 1 uM
[36] = target: Voltage-gated inwardly rectifying potassium channel KCNH2 (Homo sapiens, UniProt Q12809); test: Inhibition of human ERG by patch clamp method
Mus musculus [37] = test: Antiinflammatory activity in mouse assessed as reduction of LPS-stimulated TNFalpha expression at 60 mg/kg relative to control; assay type: functional; set-up: scale not given: the % may be the effect or the level left
Mus musculus [38] = test: Antiinflammatory activity in mouse assessed as reduction of LPS-stimulated TNFalpha expression at 6 mg/kg relative to control; assay type: functional; set-up: scale not given: the % may be the effect or the level left
Glucocorticoid receptor [39] = target: T6, Glucocorticoid receptor
Description: Binding affinity to human glucocorticoid receptor by fluorescence polarization competitive binding assay

Mus musculus [40] = test: Antiinflammatory activity in mouse assessed as reduction of LPS-stimulated TNFalpha expression at 3 mg/kg relative to control; assay type: functional; set-up: scale not given: the % may be the effect or the level left
Glucocorticoid receptor [41] = target: T6, Glucocorticoid receptor; test: Agonist activity at glucocorticoid receptor in human fibroblast assessed as inhibition of IL-1-beta-induced IL6 production treated 1 hr before IL1-beta challenge measured after 24 hrs by transrepression assay; assay type: functional

Sequence of Sigma non-opioid intracellular receptor 1 (Homo sapiens) (Q99720 whole entry): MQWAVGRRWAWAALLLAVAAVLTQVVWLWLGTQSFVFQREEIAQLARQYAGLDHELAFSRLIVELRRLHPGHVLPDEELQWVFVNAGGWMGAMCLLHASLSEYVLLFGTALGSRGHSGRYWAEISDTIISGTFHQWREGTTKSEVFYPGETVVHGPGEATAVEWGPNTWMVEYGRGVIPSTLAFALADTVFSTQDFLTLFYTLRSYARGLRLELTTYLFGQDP
Sequence of D(1A) dopamine receptor (Homo sapiens) (P21728 whole entry): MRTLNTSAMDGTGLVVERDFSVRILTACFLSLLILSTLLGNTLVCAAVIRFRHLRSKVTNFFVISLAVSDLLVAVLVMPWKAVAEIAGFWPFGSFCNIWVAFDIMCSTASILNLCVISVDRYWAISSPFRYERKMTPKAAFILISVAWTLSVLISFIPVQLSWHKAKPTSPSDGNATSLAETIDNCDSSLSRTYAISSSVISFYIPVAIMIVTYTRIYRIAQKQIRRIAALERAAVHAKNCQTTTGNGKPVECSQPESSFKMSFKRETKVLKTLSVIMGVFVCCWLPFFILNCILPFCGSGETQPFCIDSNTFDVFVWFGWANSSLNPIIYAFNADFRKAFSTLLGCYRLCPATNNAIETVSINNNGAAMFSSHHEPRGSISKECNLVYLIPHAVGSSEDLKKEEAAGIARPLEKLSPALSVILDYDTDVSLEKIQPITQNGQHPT

OC(c1ccc2c(cnn2-c2ccc(F)cc2)c1)(c1cccc(Cl)c1Cl)C(F)(F)F (single isomer, unassigned; (+))
active: Activity (Mus musculus [27])
> 1000: Ratio [20] | Ratio [25] | Ratio [29] | Ratio [31]
< 50%: inhibition [1] | inhibition [2] | inhibition [3] | inhibition [4] | inhibition [5] | inhibition [6] | inhibition [7] | inhibition [8] | inhibition [9] | inhibition [10] | inhibition [11] | inhibition [12] | inhibition [13] | inhibition [14] | inhibition [15] | inhibition [16] | inhibition [17] | inhibition [18] | inhibition [19] | inhibition [21] | inhibition [22] | inhibition [23] | inhibition [24] | inhibition [26] | inhibition [28] | inhibition [30] | inhibition [32] | inhibition [33] | inhibition [34]

OC(c1ccc2c(cnn2-c2ccc(F)cc2)c1)(c1cccc(Cl)c1Cl)C(F)(F)F (single isomer, unassigned; (+)) [1-(2,3-DICHLOROPHENYL)-2,2,2-TRIFLUORO-1-(1-(4-FLUOROPHENYL)-1H-INDAZOL-5-YL)ETHANOL (ENANTIOMERIC MIX)]
< 50%: inhibition at 1 µM (hERG (KCNH2))
> 10000 nM: IC50 [36]
25%: Activity (Mus musculus [40])
50%: Activity (Mus musculus [38])
350 nM: EC50 (Glucocorticoid receptor [35])
19 nM: EC50 (Glucocorticoid receptor [41])
68%: Activity (Mus musculus [37])
34 nM: IC50 (Glucocorticoid receptor [39])
